Tested on: mouse cortical neuron cultures
Settings: not given

| Compound | % Dead cells (vehicle subtracted) [%] |
| --- | --- |
| C/C(=N\C#N)N(C)Cc1ccc(Cl)nc1 [Acetamiprid] | 2.983 |
| CC(C)=CC1C(C(=O)OCc2coc(Cc3ccccc3)c2)C1(C)C (stereo not drawn) [Resmethrin] | 1.827 |
| CCOP(=S)(OCC)SCCSCC [Disulfoton] | 2.557 |
| CCOP(=S)(OCC)Oc1ccc2c(C)c(Cl)c(=O)oc2c1 [Coumaphos] | 0.01959 |
| CC(C)N1C(=O)c2ccccc2NS1(=O)=O [Bentazone] | -0.5905 |
| COP(=O)(OC)OC=C(Cl)Cl [Dichlorvos] | 0.4159 |
| COC(=O)c1c(C(F)F)nc(C(F)(F)F)c(C2=NCCS2)c1CC(C)C [Thiazopyr] | 1.196 |
| COP(=S)(OC)Oc1ccc([N+](=O)[O-])c(C)c1 [Fenitrothion] | -1.338 |
| CCOP(=O)(SC(C)CC)N1CCSC1=O (stereo not drawn) [Fosthiazate] | -0.4742 |
| OCCOc1ccccc1 [Phenoxyethanol [2-Phenoxyethanol]] | 4.907 |
| CCCC1COC(Cn2cncn2)(c2ccc(Cl)cc2Cl)O1 (stereo not drawn) [Propiconazole] | 0.7517 |
| CCNC(=O)NC(=O)/C(C#N)=N/OC [Cymoxanil] | 3.586 |
| O=C(O)C(F)(F)C(F)(F)C(F)(F)C(F)(F)C(F)(F)C(F)(F)C(F)(F)F | -2.482 |
| Mancozeb | 1.017 |
| CCC(=O)Nc1ccc(Cl)c(Cl)c1 [Propanil] | -3.018 |
| CSc1nnc(C(C)(C)C)c(=O)n1N [Metribuzin] | -0.1172 |
| CN=C=S | 3.139 |
| Nc1c(Cl)c(Cl)nc(C(=O)O)c1Cl [Picloram] | 3.752 |
| CNC(=O)O/N=C/C(C)(C)SC [Aldicarb] | -0.4371 |
| CNC(=O)Oc1ccccc1OC(C)C [Propoxur] | 0.5409 |
| CNc1cnn(-c2cccc(C(F)(F)F)c2)c(=O)c1Cl [Norflurazon] | -0.1097 |

| Compound | % Dead cells (vehicle subtracted) [%] |
| --- | --- |
| Cc1ccc(C(=O)c2ccccc2)cc1 [Methanone (4-Methylbenzophenone)] | 2.416 |
| CCCSP(=O)(OCC)Oc1ccc(Br)cc1Cl (stereo not drawn) [Profenofos] | -2.76 |
| CON(C)C(=O)Nc1ccc(Cl)c(Cl)c1 [Linuron] | -0.9348 |
| CCCCOC(=O)[C@@H](C)Oc1ccc(Oc2ccc(C(F)(F)F)cn2)cc1 | 0.5693 |
| O=C1C2CC=CCC2C(=O)N1SC(Cl)(Cl)Cl (stereo not drawn) [Captan] | 2.374 |
| O=C(Nc1ccccc1)Nc1ccnc(Cl)c1 [Forchlorfenuron] | 0.6006 |
| Cc1c(COC(=O)[C@@H]2[C@H](/C=C(\Cl)C(F)(F)F)C2(C)C)cccc1-c1ccccc1 (racemic) [Bifenthrin] | 0.2358 |
| CC(C)Oc1cccc(NC(=O)c2ccccc2C(F)(F)F)c1 [Flutolanil] | 9.589 |
| Chlorpyrifos oxon | 0.8087 |
| CC1(C)C(C=C(Cl)Cl)C1C(=O)OC(C#N)c1ccc(F)c(Oc2ccccc2)c1 (stereo not drawn) [Cyfluthrin (Baythroid)] | -3.677 |
| CC(C)(C)C(=O)C(Oc1ccc(Cl)cc1)n1cncn1 (stereo not drawn) [Triadimefon] | -0.7492 |
| COC(=O)c1ccc(CNS(C)(=O)=O)cc1S(=O)(=O)NC(=O)Nc1nc(OC)cc(OC)n1 [Mesosulfuron methyl] | -0.4756 |
| CCOC(=O)C(Cl)Cc1cc(-n2nc(C)n(C(F)F)c2=O)c(F)cc1Cl (stereo not drawn) [Carfentrazone-ethyl] | 9.785 |
| O=[N+]([O-])c1c(Cl)c(Cl)c(Cl)c(Cl)c1Cl [Quintozene] | -2.206 |
| Cc1cc(C)nc(NC(=O)NS(=O)(=O)c2ccccc2C(=O)OC2COC2)n1 [Oxasulfuron (benzoic acid)] | -0.4775 |
| CN(C)C(=S)SSC(=S)N(C)C [Thiram] | 0.7821 |
| COCCO [Methyl cellosolve] | 2.2057 |
| CC1=C(C(=O)Nc2ccccc2)SCCO1 | 3.189 |
| CC1=NNC(=O)N(/N=C/c2cccnc2)C1 | -2.3223 |
| CCCCC(CC)CN1C(=O)C2C3C=CC(C3)C2C1=O (stereo not drawn) | -0.09059 |
| Milbemectin | 1.383 |

| Compound | % Dead cells (vehicle subtracted) [%] |
| --- | --- |
| CCOP(=O)(NC(C)C)Oc1ccc(SC)c(C)c1 (stereo not drawn) [Fenamiphos] | 5.708 |
| CN1COCN(Cc2cnc(Cl)s2)/C1=N\[N+](=O)[O-] [Thiamethoxam] | 1.407 |
| CC(C)N(C(=O)SCC(Cl)=C(Cl)Cl)C(C)C [Tri-allate] | 1.844 |
| N#CSCSc1nc2ccccc2s1 | -1.603 |
| CCOP(=S)(OCC)Oc1nc(Cl)n(C(C)C)n1 [Isazofos] | -3.842 |
| CN/C(=N\[N+](=O)[O-])NCc1cnc(Cl)s1 [Clothianidin] | -2.188 |
| CSC(=O)c1cccc2nnsc12 | -0.1497 |
| CCOP(=S)(OCC)OC(Cl)C(Cl)(Cl)Cl (stereo not drawn) [Chlorethoxyfos] | 0.5415 |
| CCCOC(=O)c1ccc(C(=O)OCCC)nc1 | -2.999 |
| COc1cc(Cl)c(OC)cc1Cl [Chloroneb] | -0.9422 |
| CCCCN(CC)c1c([N+](=O)[O-])cc(C(F)(F)F)cc1[N+](=O)[O-] [Benfluralin [Benefin]] | -1.412 |
| CCC/C(=N\OCC)C1=C(O)CC(CC(C)SCC)CC1=O (stereo not drawn) [Sethoxydim] | -0.798 |
| CC1(C)C(C=C(Cl)Cl)C1C(=O)OCc1cccc(Oc2ccccc2)c1 (stereo not drawn) [Permethrin] | -0.7739 |
| CC(C)(c1ccc(O)cc1)c1ccc(O)cc1.CC(C)(c1ccc(O)cc1)c1ccc(O)cc1 | 0.9627 |
| CCCCCCC(C)OC(=O)COc1nc(F)c(Cl)c(N)c1Cl (stereo not drawn) [Fluroxypyr-meptyl] | -1.2099 |
| CC1(C)C(C(=O)OC(C#N)c2cccc(Oc3ccccc3)c2)C1(C)C (stereo not drawn) [Fenpropathrin (Danitol)] | -1.601 |
| COC(=O)C=C(C)OP(=O)(OC)OC | -2.439 |
| O=c1n(Cl)c(=O)n(Cl)c(=O)n1Cl [Symclosene (Trichloro-s-triazinetrione)] | 4.474 |
| O=C(NC(=O)c1c(F)cccc1F)Nc1ccc(OC(F)(F)C(F)OC(F)(F)F)c(Cl)c1 (stereo not drawn) [Novaluron] | -1.142 |

Same assay, conditions: 10 µM chemical; mouse cortical neuron cultures

| Compound | % Dead cells (vehicle subtracted) [%] |
| --- | --- |
| CCSC(=O)N(CC(C)C)CC(C)C [Butylate] | 1.861 |

Same assay, conditions: mouse, 24 h, 0.01 µM

| Compound | % Dead cells (vehicle subtracted) [%] |
| --- | --- |
| CCCCOC(=O)C(C)Oc1ccc(Oc2ccc(C(F)(F)F)cn2)cc1 (stereo not drawn) [Fluazifop-butyl] | 0.215 |

Same assay, conditions: mouse, 24 h, 0.1 µM

| Compound | % Dead cells (vehicle subtracted) [%] |
| --- | --- |
| CCCCOC(=O)C(C)Oc1ccc(Oc2ccc(C(F)(F)F)cn2)cc1 (stereo not drawn) [Fluazifop-butyl] | -0.165 |
| CC(C1CC1)C(O)(Cn1cncn1)c1ccc(Cl)cc1 (stereo not drawn) [Cyproconazole] | 3.058 |

Same assay, conditions: mouse, 24 h, 1 µM

| Compound | % Dead cells (vehicle subtracted) [%] |
| --- | --- |
| CCCCOC(=O)C(C)Oc1ccc(Oc2ccc(C(F)(F)F)cn2)cc1 (stereo not drawn) [Fluazifop-butyl] | 23.9839 |
| CC(C1CC1)C(O)(Cn1cncn1)c1ccc(Cl)cc1 (stereo not drawn) [Cyproconazole] | 5.165 |

Same assay, conditions: mouse, 24 h, 10 µM

| Compound | % Dead cells (vehicle subtracted) [%] |
| --- | --- |
| CCCCOC(=O)C(C)Oc1ccc(Oc2ccc(C(F)(F)F)cn2)cc1 (stereo not drawn) [Fluazifop-butyl] | 7.788 |
| COC(=O)CSc1cc(/N=c2\sc(=O)n3n2CCCC3)c(F)cc1Cl [Fluthiacet-methyl] | -0.383 |
| CC(C1CC1)C(O)(Cn1cncn1)c1ccc(Cl)cc1 (stereo not drawn) [Cyproconazole] | 6.321 |
| CCCN(CC)CC1COC2(CCC(C(C)(C)C)CC2)O1 (stereo not drawn) [Spiroxamine] | 7.8727 |
| c1ccc(Nc2ccccc2)cc1 [Diphenylamine] | 2.557 |
| FC(F)C(F)(F)OCC(Cn1cncn1)c1ccc(Cl)cc1Cl (stereo not drawn) [Tetraconazole] | 2.833 |
| Nc1c(Cl)c(F)nc(OCC(=O)O)c1Cl [Fluroxypyr] | -1.905 |
| c1ccc2[nH]c(-c3cscn3)nc2c1 [Thiabendazole] | -3.658 |
| Cc1ccc(-c2c(Cl)nc(C#N)n2S(=O)(=O)N(C)C)cc1 [Cyazofamid] | -1.678 |
| COc1cnc(OC)n2nc(NS(=O)(=O)c3c(OCC(F)F)cccc3C(F)(F)F)nc12 [Penoxsulam] | -0.3089 |
| O=[N+]([O-])NC1=NCCN1Cc1ccc(Cl)nc1 [Imidacloprid] | -3.0763 |
| CN(C)C(=O)Nc1cccc(C(F)(F)F)c1 [Fluometuron] | 0.2278 |
| COc1ccc(C(=CC(=O)N2CCOCC2)c2ccc(Cl)cc2)cc1OC [Dimethomorph] | -1.666 |
| CCCOC/C(=N\c1ccc(Cl)cc1C(F)(F)F)n1ccnc1 [Triflumizole] | 1.241 |
| Cc1cc(C)nc(Nc2ccccc2)n1 [Pyrimethanil] | -4.407 |
| CCOC(=O)C(C)Oc1ccc(Oc2cnc3cc(Cl)ccc3n2)cc1 (stereo not drawn) [Quizalofop-ethyl] | -4.709 |
| N#Cc1c(Cl)cccc1Cl [Dichlobenil] | 8.856 |
| Cc1nn(-c2cc(NS(C)(=O)=O)c(Cl)cc2Cl)c(=O)n1C(F)F [Sulfentrazone] | -1.513 |
| CS(=O)(=O)c1cc(C(F)(F)F)ccc1C(=O)c1cnoc1C1CC1 [Isoxaflutole] | 2.416 |
| CCOC(=O)C(C)OC(=O)c1cc(Oc2ccc(C(F)(F)F)cc2Cl)ccc1[N+](=O)[O-] (stereo not drawn) [Lactofen] | -1.539 |
| CC(COc1ccc(Oc2ccccc2)cc1)Oc1ccccn1 (stereo not drawn) [Pyriproxyfen] | 1.128 |
| O=C(Nc1ccccc1-c1ccc(Cl)cc1)c1cccnc1Cl [Boscalid] | -4.045 |
| Clc1cccc(C(Cl)(Cl)Cl)n1 [Nitrapyrin] | 0.473 |
| COc1ccc(-c2ccccc2)cc1NNC(=O)OC(C)C [Bifenazate] | 0.1333 |
| C=CC1(C)OC(=O)N(c2cc(Cl)cc(Cl)c2)C1=O (stereo not drawn) [Vinclozolin] | -1.854 |
| CCN(CC)C(=O)SCc1ccc(Cl)cc1 [Thiobencarb] | -1.522 |
